The record followed here is patent US6093731A, “Isoquinolines” (priority 1999, dated 2000).

Structures can show the parent of a compound that is named as a salt. Where two headings read alike, the source gives them in different places. Where only a bound is given, the exact number is not on record here.

This test has as its target T1, human urokinase (Homo sapiens, UniProt P00749).
T1 construct: the urokinase used was HMWT Human Urokinase (Calbiochem 672081); purchased Calbiochem 672081
As to the kind of experiment: urokinase inhibition assay (S-2444 substrate). The format is biochemical.

Setting [1] is: read-out: Ki values vs. urokinase.

One may read the Ki as the equilibrium dissociation constant of an inhibitor or competing ligand from its target. Regarding `NC(N)=Nc1ncc(Cl)c2ccc(S(=O)(=O)NC3(C(=O)O)CCCC3)cc12` [37(b), N-[(4-Chloro-1-guanidino-7-isoquinolinyl)sulphonyl]cycloleucine], the Ki under setting [1] is at most 0.02 µM.
Regarding `NC(N)=Nc1ncc(Cl)c2ccc(S(=O)(=O)NC3(C(=O)O)CCCCC3)cc12` [43(b), 1-{[(4-Chloro-1-guanidino-7-isoquinolinyl)sulphonyl]amino}cyclohexanecarboxylic acid hydrochloride], the Ki was at most 0.02 µM.
With `CN(C)CCN(C1(C(=O)O)CCCC1)S(=O)(=O)c1ccc2c(Br)cnc(NC(=N)N)c2c1` [84(b), N-({4-Bromo-1-guanidino-7-isoquinolinyl}sulphonyl)-N-[2-(dimethylamino)ethyl]cycloleucine dihydrochloride], the Ki under setting [1] is at most 0.02 µM.
The molecule `NC(N)=Nc1ncc(Cl)c2ccc(S(=O)(=O)N3CCC[C@@H]3C(=O)O)cc12` [Example 32(b), N-[(4-Chloro-1-guanidino-7-isoquinolinyl)sulphonyl]-D-proline hydrochloride] displayed a Ki of at most 0.02 µM.
In the case of `NC(N)=Nc1ncc(Cl)c2ccc(S(=O)(=O)NC3(C(=O)NCCO)CCCC3)cc12` [Example 38, 1-{[(4-Chloro-1-guanidino-7-isoquinolinyl)sulphonyl]amino}-N-(2-hydroxyethyl)cyclopentanecarboxamine hydrochloride], the Ki under setting [1] is at most 0.02 µM.
On to `CN(C)CCNC(=O)C1(NS(=O)(=O)c2ccc3c(Cl)cnc(N=C(N)N)c3c2)CCCC1` [Example 39(a), 1-{[(4-Chloro-1-guanidino-7-isoquinolinyl)sulphonyl]amino}-N-[2-(dimethylamino)ethyl]cyclopentanecarboxamine], for which, under setting [1], the Ki was at most 0.02 µM.
As to `CN(CCO)C(=O)C1(NS(=O)(=O)c2ccc3c(Cl)cnc(NC(=N)N)c3c2)CCCC1` [Example 75, 1-[({4-Chloro-1-guanidino-7-isoquinolinyl}sulphonyl)amino]-N-(2-hydroxyethyl)-N-methylcyclopentanecarboxamide hydrochloride], the inhibition constant (Ki) under setting [1] was at most 0.02 µM.
Still for that read-out and setting: as for `COCCNC(=O)C1(NS(=O)(=O)c2ccc3c(Cl)cnc(NC(=N)N)c3c2)CCCC1` [Example 76, 1-[({4-Chloro-1-guanidino-7-isoquinolinyl}sulphonyl)amino]-N-(2-methoxyethyl)cyclopentanecarboxamide hydrochloride], the figure is at most 0.02 µM.
As for `NC(N)=Nc1ncc(Cl)c2ccc(S(=O)(=O)NC3(C(=O)N4CCOCC4)CCCC3)cc12` [Example 78, 4-Chloro-1-guanidino-N-[1-(morpholinocarbonyl)cyclopentyl]-7-isoquinolinesulphonamide hydrochloride], the Ki was at most 0.02 µM.
With `CN1CCN(C(=O)C2(NS(=O)(=O)c3ccc4c(Cl)cnc(N=C(N)N)c4c3)CCCC2)CC1` [Example 79, 4-Chloro-1-guanidino-N-{1-[(4-methylpiperazino)carbonyl]cyclopentyl}-7-isoquinolinesulphonamide dihydrochloride], the Ki is at most 0.02 µM.
As to `N=C(N)Nc1ncc(Cl)c2ccc(S(=O)(=O)N(CCOC3CCCCO3)C3(C(=O)O)CCCC3)cc12` (stereo not drawn) [Example 87(b), 1-{[(4-Chloro-1-guanidino-7-isoquinolinyl)sulphonyl][2-(tetrahydro-2H-pyran-2-yloxy)ethyl]amino}cyclopentanecarboxylic acid], the Ki under setting [1] is at most 0.02 µM.
For `NC(N)=Nc1ncc(Cl)c2ccc(S(=O)(=O)N3CCOC(=O)C34CCCC4)cc12` [Example 87(c), N"-{4-Chloro-7-[(10-oxo-9-oxa-6-azaspiro [4.5]dec-6-yl)sulphonyl]-1-isoquinolinyl}guanidine hydrochloride], the Ki under setting [1] is at most 0.02 µM.
